Reference: paper PMC9865752, “Design and Synthesis of (Z)-2-(Benzylamino)-5-benzylidenethiazol-4(5H)-one Derivatives as Tyrosinase Inhibitors and Their Anti-Melanogenic and Antioxidant Effects” (Molecules, 2023)

Legend:
[1] = ABTS radical scavenging assay; settings: test samples 100 µM; 2 min in the dark
Description: An antioxidant assay using ABTS is also commonly used to assess the antioxidant activities of compounds. Donation of one electron from ABTS to potassium persulfate generates the ABTS radical cation. An ABTS radical scavenging activity assay was performed using 100 µM of BABT derivatives or Trolox (a positive reference control) by mixing test samples with ABTS radical cations obtained from a reaction of potassium persulfate and ABTS. ABTS radical scavenging activity was assessed by measuring the optical density at 734 nm after leaving the test sample–ABTS radical cation mixture in the dark for 2 min.
According to a previously described method, with minor modifications, the ABTS radical scavenging activities of BABT derivatives 1–14 were assessed. Briefly, an ABTS radical solution was prepared by mixing 10 mL of aqueous ABTS solution (7 mM) with 10 mL of potassium persulfate aqueous solution (2.45 mM), and the mixture was kept for 11–15 h in the dark at room temperature until the absorbance remained constant. Prior to the antioxidant assay experiments, the ABTS radical solution was diluted with water to adjust the absorbance at 734 nm to 0.70 ± 0.02. A 10 µL aliquot of BABT derivatives or Trolox at a concentration of 1000 µM was added to 90 µL of ABTS+ free radical solution in each well of a 96-well plate and incubated for 2 min in the dark at ambient temperature. The absorbance of each well was measured at 734 nm using a microplate reader (VersaMax; Molecular Devices). The ABTS+ radical scavenging activities of BABT derivatives were compared to those of Trolox. All experiments were carried out independently, thrice.

mushroom tyrosinase = target: T1, mushroom tyrosinase (Agaricus bisporus, UniProt C7FF04); assay: Kinetic studies of mushroom tyrosinase inhibition (Lineweaver–Burk and Dixon plots); format: biochemical; settings: substrate L-dopa
T1 construct: purchased
T1 sequence (C7FF04 1-392): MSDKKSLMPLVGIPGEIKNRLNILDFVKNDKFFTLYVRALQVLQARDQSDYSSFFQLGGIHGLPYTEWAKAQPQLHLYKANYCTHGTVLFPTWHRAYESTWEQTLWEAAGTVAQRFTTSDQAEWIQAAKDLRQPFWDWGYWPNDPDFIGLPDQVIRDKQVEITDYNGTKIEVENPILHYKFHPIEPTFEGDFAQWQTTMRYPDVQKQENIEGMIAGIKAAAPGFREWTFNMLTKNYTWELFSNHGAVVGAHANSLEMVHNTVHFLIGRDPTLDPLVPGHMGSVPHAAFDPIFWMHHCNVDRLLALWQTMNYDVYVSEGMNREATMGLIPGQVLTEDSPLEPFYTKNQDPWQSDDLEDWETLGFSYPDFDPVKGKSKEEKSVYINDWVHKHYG
Description: Kinetic studies using Lineweaver–Burk plots were performed using four different concentrations (0, 0.5, 1, and 2 µM) of the test derivatives (7 and 8) and five different concentrations (0.5, 1, 2, 4, and 8 mM for 7, and 1, 2, 4, 8, and 16 mM for 8) of L-dopa.
Lineweaver–Burk plots for 7 and 8 were transformed into the corresponding Dixon plots to determine their inhibition constant (Ki) values for the mushroom tyrosinase–inhibitor complex. […] The Ki values for the mushroom tyrosinase–inhibitor complex were obtained from the x-axis value of each convergence point.
Lineweaver–Burk plots of derivatives 7 and 8 were obtained in the presence of L-dopa as the substrate. Briefly, 20 µL aliquots of mushroom tyrosinase aqueous solution (200 units/mL) were added to each well of a 96-well plate containing 10 µL BABT derivative (7 or 8) DMSO solution (final concentrations: 0, 0.5, 1, and 2 µM) and 170 µL of an aqueous solution containing L-dopa (final concentrations: 1.0, 2.0, 4.0, 8.0, and 16.0 mM) and sodium phosphate buffer (pH 6.5, 17.2 mM). The initial rate of dopachrome formation was determined by examining the changes in absorbance at a wavelength of 475 nm (ΔOD475/min) using a microplate reader (VersaMax; Molecular Devices).

[2] = DPPH radical scavenging assay; settings: test samples 500 µM; DPPH 0.18 mM; 30 min in the dark
Description: DPPH is a light-sensitive compound containing free radicals. The DPPH assay is one of the most common methods for evaluating the antioxidant activity of a compound. The effects of BABT derivatives on DPPH radical scavenging activities were evaluated using L-ascorbic acid as a positive reference control. DPPH radical scavenging activities were measured after leaving the mixed samples (test samples of 500 µM plus DPPH solution of 0.18 mM) in the dark for 30 min. To determine the radical scavenging activities, the absorbance of the mixed samples was measured at 517 nm.
According to previously described methods, with minor modifications, the DPPH radical scavenging activities of BABT derivatives 1–14 were measured. A DPPH (0.2 mM) and methanol solution (180 µL) was mixed with 20 µL of a DMSO solution containing 5 mM BABT derivative, or with 20 µL of an aqueous solution of 5 mM L-ascorbic acid, in each well of a 96-well plate and kept at ambient temperature in the dark for 30 min. The optical density of each well was measured at 517 nm using a microplate reader (VersaMax; Molecular Devices). L-Ascorbic acid was used as a positive reference control, and the DPPH radical scavenging abilities of BABT derivatives were compared with those of L-ascorbic acid. All experiments were performed independently, thrice.

[3] = target: T2, B16F10 cellular tyrosinase (Mus musculus, UniProt P11344); assay: Cellular anti-tyrosinase activity assay; format: cell-based, murine; settings: α-MSH plus IBMX stimulated B16F10 cells, 72 h
T2 construct: host or cells: B16F10 murine melanoma cells
T2 sequence (P11344 19-533): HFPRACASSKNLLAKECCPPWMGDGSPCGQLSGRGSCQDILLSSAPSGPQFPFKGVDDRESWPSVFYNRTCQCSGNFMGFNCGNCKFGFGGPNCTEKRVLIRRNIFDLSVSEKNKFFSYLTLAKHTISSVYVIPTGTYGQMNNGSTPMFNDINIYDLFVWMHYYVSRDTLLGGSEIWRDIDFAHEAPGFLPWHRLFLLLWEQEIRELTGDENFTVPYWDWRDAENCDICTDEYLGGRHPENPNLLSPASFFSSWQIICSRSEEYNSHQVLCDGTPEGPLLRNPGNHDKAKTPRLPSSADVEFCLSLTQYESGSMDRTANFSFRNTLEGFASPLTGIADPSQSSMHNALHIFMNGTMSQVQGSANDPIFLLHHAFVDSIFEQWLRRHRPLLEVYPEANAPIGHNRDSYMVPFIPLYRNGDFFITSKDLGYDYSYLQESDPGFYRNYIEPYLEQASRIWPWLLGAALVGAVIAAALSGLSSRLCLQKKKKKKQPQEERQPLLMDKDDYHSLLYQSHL
Description: Briefly, B16F10 cells were seeded at 1 × 10^5 cells/well in a 6-well plate and allowed to adhere to well bottoms for 24 h. […] Then, a stimulator (0.5 µM α-MSH plus 200 µM IBMX) was applied to increase the cellular tyrosinase activity, and the cells were cultured for 72 h under the conditions used for cell cultures. Cultured cells were washed twice with PBS and exposed to an aliquot (100 µL) of the lysis buffer solution containing 20% Triton X-100 (5 µL), 50 mM phosphate buffer (pH 6.5, 90 µL), and 2 mM phenylmethylsulfonyl fluoride (5 µL) to lyse the cultured cells for 30 min at −80 °C. After defrosting, the cell lysates were transferred to microcentrifuge tubes and centrifuged for 30 min at 4 °C and 12,000 rpm, and the supernatants (80 µL) in each well were mixed with 20 µL L-dopa (2 mg/mL) and incubated at 37 °C for 10 min. The absorbance of dopachrome was measured at 475 nm using a microplate reader (VersaMax; Molecular Devices).

**Q.** With `O=C1N=C(NCc2ccccc2)S/C1=C\c1ccc(O)cc1O` [Compound 8, (Z)-2-(benzylamino)-5-(2,4-dihydroxybenzylidene)thiazol-4(5H)-one] as the molecule, how does the “ABTS radical scavenging activity, % inhibition” value [1] read?
**A.** 96%

**Q.** And the Ki (mushroom tyrosinase; Dixon plots, read-out: inhibition constant (Ki) for the mushroom tyrosinase–inhibitor complex)?
**A.** 810 nM

**Q.** And the mode of inhibition (mushroom tyrosinase; Lineweaver–Burk plots)?
**A.** competitive inhibitors

**Q.** And the “DPPH radical scavenging activity, % inhibition” value [2]?
**A.** 76%

**Q.** And the “inhibition of cellular tyrosinase activity (in words)” value ([3]; 5 µM)?
**A.** more than that by kojic acid at 20 µM

**Q.** What about the “cellular tyrosinase activity compared to untreated control” value ([3]; 20 µM) of the same molecule?
**A.** 1.7 fold
